Where a SMILES comes first, the peptide text is derived from it. The star is where a group is joined. Cbz = O=C(OCc1ccccc1)*; CH2F = FC*
Assays:
E-cadherin = E-cadherin proteolysis in A431 cells during STS-induced apoptosis (Western blot, C36 antibody); type: cell-based, human; conditions: zVAD-FMK 100 μM pre-incubated 30 min, then STS 6 hours
Protocol: FIG. 11 provides digitized images and graphs showing that apoptosis enhances γ-secretase activity and levels of γ-secretase complex proteins. FIG. 11a: Apoptosis was induced in CAB, CHO-CC99/PS1 and CHO-APP 751/PS1 by STS treatment for 6 hours with or without zVAD (100 μM). Secreted Aβ1−total was measured by ELISA. […] Each bar represents the mean and SD of quadruplicate determinations. FIG. 11b: Western blot analysis with the antibody, A8717, detected endogenous APP-FL and overexpressed C99 in CHO-CC99/PS1cells, while overexpressed APP-FL and C83 were detected in CHO-APP751/PS1 cells. FIG. 11c: A431 human epithelial cells were pre-incubated for 30 min in the absence (−) or presence (+) of zVAD-FMK (100 μM), L-685,458 (0.5 μM) or GM6001 (2.5 μM). Cells were then treated with STS for 6 hours to induce apoptosis, and cell extracts were probed with anti-E-cadherin C36 antibody. FIG. 11d: Protein levels of γ-secretase complex components were monitored by Western blotting employing the anti-nicastrin, Ab14, PNT2, H2D2 antibodies. Densitometry analysis was performed using NIH image software. Each bar represents the mean and SEM of at least three experiments. FIG. 11e: Nicastrin was transiently transfected in the A431 cells. Western blot analysis for E-cadherin and γ-secretase complex component was performed as in FIG. 11c and FIG. 11d β-tubulin was used as loading control.
To confirm that apoptosis/caspase activation increases γ-secretase activity, we next examined the proteolysis of E-cadherin, another γ-secretase substrate (Marambaud, P. et al., Embo J21, 1948-56 (2002)) during apoptosis. We confirmed that caspase activation enhanced the production of E-Cad/CTF1 (Steinhusen, U. et al., J Biol Chem 276, 4972-80 (2001)), E-Cad/CTF2 (Marambaud, P. et al., 2002) (˜2- and 3-fold increase by densitometry analysis, respectively), and generated E-Cad/CTF3 (Marambaud, P. et al., 2002) (FIG. 11c). […]

β-secretase = test: C99 levels by Western blot (WO2) in CAB cells; type: cell-based, Chinese Hamster; conditions: STS-induced apoptosis, CHO cells expressing APP751 and BACE (CAB)
Protocol: (§1) Chinese Hamster Ovary (CHO) cells expressing APP751 and BACE (CAB), CHO cells expressing full-length APP and wild-type PS1 (CHO-APP751/PS1) or expressing C99 and wild-type PS1 (CHO-CC99/PS1), H4 human neuroglioma cells expressing APP751 (H4-APP751), mouse embryonic fibroblast (MEF), embryonic stem (ES) cells, and human epithelial A431 cells were grown as described previously (Marambaud, P. et al., Embo J 21, 1948-56 (2002); Cai, H. et al., Nat Neurosci 4, 233-4 (2001); Sato, N. et al., Nat Cell Biol 2, 863-70 (2000); Puglielli, L., Ellis, B. C., Saunders, A. J. & Kovacs, D. M., J Biol Chem 278, 19777-83 (2003); Wolfe, M. S. et al., Nature 398, 513-7 (1999)). For the induction of apoptosis, we used staurosporine or etoposide (Calbiochem (EMD Biosciences, San Diego, Calif.)). For Aβ measurements, cells were seeded at the density of 0.5×10^6 cells per well in 6 well plates. After 48 hours, cells were treated with either STS (1 μM) for 6 hours. In order to inhibit caspase activation a sister plate of cells was pre-treated with zVAD ([…], Enzyme Systems Products) for 1 hour before STS treatment. For time-course experiments, cells were seeded at the density of 2×10^6 cells per 100 mm dish and treated with STS (1 μM) or etoposide (100 μg/mL). At different time points (0, 3, 6, 9, 12 and 24 hours), the cells were scraped, centrifuged and then lysed in buffer containing 1% NP40. […]

[1] = system: γ-secretase complex proteins; test: γ-secretase complex protein levels by Western blot in A431 cells; type: cell-based, human; conditions: after 6 hours of STS treatment
Protocol: as §1

[2] = system: BACE, PS1, nicastrin, Pen-2 and Aph1a mRNA; test: Northern blot of BACE and γ-secretase complex component mRNA in H4-APP751 cells; type: cell-based, human; conditions: after 6 hours of STS treatment
Protocol: FIG. 14 provides digitized images showing that transcription of BACE and γ-secretase complex components is decreased during apoptosis. Northern Blot analysis: H4-APP751 cells were treated with STS in serum free media. Total RNA was extracted using TRIZOL (Invitrogen). 20 μg of the resulting RNA were analyzed by Northern blot analysis performed as previously described (Koh, Y. H. et al., Faseb J 15, 1472-4 (2001)). Human cDNA of BACE, PS1 , nicastrin, Pen-2, Aph1a was labeled with [α-^32P]dCTP (PerkinElmer) using random hexanucleotide primers (Prime-a-gene labeling system; Promega). Ethidium staining of the gel (lower panel) confirmed equal RNA loading.
We next asked whether apoptosis increases protein levels of BACE, PS1, nicastrin, Pen-2 and Aph1a via increased synthesis. […] We next asked whether BACE, PS1, nicastrin, Pen-2 and Aph1a protein levels are increased during apoptosis due to decreased degradation. […] In contrast, TACE, full-length APP, and APP-CTFs were not stabilized during apoptosis (FIG. 15a). Given that the components of the β-amyloidogenic secretases are stabilized during apoptosis while many other proteins are degraded (e.g. TACE, APP), the apparent increase of protein levels at the latest time points of the CHX+STS time course was most likely due to a relative increase of stabilized protein when normalized for the equal amounts of total protein.

| SMILES | generation of E-Cad/CTF3 (E-cadherin) | levels of C99 (β-secretase) | immature nicastrin levels increase [1] [fold] | protein levels of PS1, Pen-2 and Aph1a [1] | BACE, PS1, nicastrin, Pen-2 and Aph1a mRNA levels [2] |
| --- | --- | --- | --- | --- | --- |
| COC(=O)C[C@H](NC(=O)[C@H](C)NC(=O)[C@@H](NC(=O)OCc1ccccc1)C(C)C)C(=O)CF [zVAD] (Cbz-Val-Ala-Asp(OMe)-CH2F) | inhibited | – | – | – | – |
| CN[C@@H]1C[C@H]2O[C@@](C)([C@@H]1OC)n1c3ccccc3c3c4c(c5c6ccccc6n2c5c31)C(=O)NC4 [STS, staurosporine] | – | increased | ~1.5 | unchanged | virtually undetectable |
